Assay results from patent US20170049739A1, “PROSTACYCLIN COMPOUNDS, COMPOSITIONS AND METHODS OF USE THEREOF” (INSMED INCORPORATED, priority 2013, published 2017).

Experiments:
[1] = Treprostinil alkyl ester conversion to treprostinil in rat lung tissue homogenate; format: in vitro ADME; conditions: 37° C., 200 nM, 10 mg/mL of protein, 4 hours
Protocol: (§1) Treprostinil alkyl ester conversion to treprostinil was also measured in the presence of rat, dog and monkey lung tissue homogenate at 37° C. Mere, data were calculated based on fit of exponential increase to the maximum (experiments performed in duplicate). The results of this study are provided below in Table 2A and FIG. 37. […] Both FIG. 37 experiments (left and right graphs) were performed in duplicate and the lines represent nonlinear exponential regression assuming 1 phase decay.

[2] = Treprostinil alkyl ester conversion to treprostinil in dog lung tissue homogenate; format: in vitro ADME; conditions: 37° C., 200 nM, 10 mg/mL of protein, 4 hours
Protocol: as §1

[3] = Treprostinil alkyl ester conversion to treprostinil in monkey lung tissue homogenate; format: in vitro ADME; conditions: 37° C., 200 nM, 10 mg/mL of protein, 4 hours
Protocol: as §1

[4] = tested on: CHO-K1 cells; experiment: CHO-K1 cell proliferation assay; conditions: unformulated alkyl esters, 0.195 μM-25 μM, 48 hour incubation
Protocol: CHG-K1 cells were harvested when the cell monolayer was 50-90% confluent (use passage 4-11). Media was aspirated out of the flask, and cells were rinsed with 2 mL of F12 media. Next, 1 mL of pre-warmed (37° C.) 0.25%o trypsin-EDTA (Life Technologies, Cat#: 25300054) was added, and cells were dislodged from the flask by tapping it on the side. Complete growth media (F12 (Life Technologies, Cat #: 31765092) +10%FBS (Hyclone, Cat #: SH30071.03)+1× Pen-Strep (Life Technologies, cat #15140-122) was then added at a volume of 10 mL. Cells were eentrifuged at 250×g for 5 minutes at room temperature, and the media was aspirated. The cell pellet was resuspended in 10 ml. complete growth media. Cell number was determined using a hemacytometer. Ceils were then seeded at 2000 cells per well of a 96-well plate in 100 μL of complete growth media. The plate was incubated overnight at 37° C. and 5% CO2 in a water-jacketed incubator.
The next day, 80 μL of fresh complete media was added to each well, and CHO—K1 cells were challenged with treprostinil compound and composition treatments. The working solutions were prepared at 10× concentration, and following 2 fold serial dilutions, 20 μL aliquots were added per well to arrive at a final 1× concentration. Following a 48 hour incubation at 37° C. and 5% CO2 in a water-jacketed incubator, the inhibitory effect on cell proliferation was determined. Plates were analyzed using 20 μL of Presto Blue reagent (Life Technologies, cat #: A13262) per well. The reagent was mixed, and plates were incubated for 1 hour at 37° C. and 5% CO2 in a water-jacketed incubator. Plates were read using either a CytoFluor Series 4000 (PerSeptive BioSystems) or Synergy Neo microplate reader (BioTek) with emission λ: 590 nm and excitation λ: 560 nm.
Following a 48 hour incubation period, the inhibitory effect of the treprostinil derivative compositions on cell proliferation was determined.
CHO—K1 cells were challenged with treprostinil alkyl esters, i.e., TR compounds of Formula (A), having the following R2 groups: • C2, C3, C4, C5, C6, C8, C10 or C12 straight chain alkyl, at dosages ranging from 0.098 μM to 25 μM, Following a 48 hour incubation period, the inhibitory effect on cell proliferation was determined.
Following a 72 hour incubation period, the inhibitory effect on cell proliferation was determined. Following a 48 hour incubation period, the inhibitory effect on cell proliferation was determined.
Similarly, CHG-K1 cells were challenged with the treprostinil compositions T612 (R2═C2), T613 (R2═C8) at concentrations ranging from 1.41 μM to 180 μM.

[5] = tested on: NR8383 cells; experiment: NR8383 cell proliferation assay; format: cell-based, rat; conditions: unformulated alkyl esters, 0.195 μM-25 μM, 72 hour incubation
Protocol: Rat alveolar NR8383 cells were harvested when the monolayer was 50-90% confluent (use passage 5-11). Because the NR8383 cells include both adherent and non-adherent cells, media was transferred to a 50 mL Falcon tube. To obtain the cells remaining in the flask, 2 mL of plain media was added, and the remaining cells were scraped out of the 75 cm^2 flask with a cell scraper and added to the 50 mL tube. […] SH30071.03) […] Technologies, cat #: 15410-122)). Cell number was determined using a hemacytometer. […] Measurements and calculations were made as described above for the CHO-K1 cells.

CCCCCCCCCCCCOC(=O)COc1cccc2c1C[C@H]1C[C@@H](O)[C@H](CC[C@@H](O)CCCCC)[C@H]1C2 [C12-TR, dodecyl-treprostinil]
Rate of treprostinil alkyl ester conversion [1]: 1.1 nmOL/h * g of protein
Rate of treprostinil alkyl ester conversion [2]: 2.2 nmOL/h * g of protein
Rate of treprostinil alkyl ester conversion [3]: 0.6 nmOL/h * g of protein
Effect on cell proliferation: concentration with detectable inhibition [4]: No detectable cell inhibition
Effect on cell proliferation [5]: No detectable cell inhibition
